Results reported in paper PMC9696794, “Synthesis and Antimicrobial Activity of Short Analogues of the Marine Antimicrobial Peptide Turgencin A: Effects of SAR Optimizations, Cys-Cys Cyclization and Lipopeptide Modifications” (International Journal of Molecular Sciences, 2022).
In brackets after ≈: the same amount, converted by molar mass. Where a SMILES comes first, the peptide text is derived from it. Bridges are numbered along the chain shown (N, C = ends). The star is where a group is joined. Lauroyl = CCCCCCCCCCCC(=O)*; Octanoyl = CCCCCCCC(=O)*

Columns and labels:
[1] = test system: B. subtilis (Bs, ATCC 23857); assay: microbe, parasite or virus in culture; type: cell-based, Bacillus subtilis; conditions: for Antimicrobial Activity (MIC) Gram + Bs: ATCC 23857, 24 h
Method in brief: (§1)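 Cultures grown in Mueller–Hinton broth were adjusted by OD600 to 2.5–3 × 10^4 CFU/mL and mixed with two-fold peptide dilutions from 256 to 1 µg/mL. Plates were incubated at 35 °C with OD595 monitored every hour for 24 h.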

[2] = test system: C. glutamicum (Cg, ATCC 13032); assay: microbe, parasite or virus in culture; type: cell-based, Corynebacterium glutamicum; conditions: for Antimicrobial Activity (MIC) Gram + Cg: ATCC 13032, 24 h
Method in brief: as §1

[3] = test system: S. aureus (Sa, ATCC 9144); assay: microbe, parasite or virus in culture; type: cell-based, Staphylococcus aureus; conditions: for Antimicrobial Activity (MIC) Gram + Sa: ATCC 9144, 24 h
Method in brief: as §1

[4] = test system: S. epidermidis RP62A (Se, ATCC 35984); assay: microbe, parasite or virus in culture; type: cell-based, Staphylococcus epidermidis; conditions: for Antimicrobial Activity (MIC) Gram + Se: ATCC 35984, 24 h
Method in brief: as §1

[5] = test system: P. aeruginosa (Pa, ATCC 27853); assay: microbe, parasite or virus in culture; type: cell-based, Pseudomonas aeruginosa; conditions: for Antimicrobial Activity (MIC) Gram − Pa: ATCC 27853, 24 h
Method in brief: as §1

[6] = test system: all bacterial strains; assay: Antibacterial MIC assay, all bacterial strains together (range or geometric mean); type: cell-based; conditions: for GM (geometric mean of the MIC values against all bacterial strains): Table 1, six bacterial strains; for GM of MIC Tot. bact.: Table S3, all bacterial test strains, MIC >256 set to 256
Method in brief: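 Broth microdilution in Mueller–Hinton broth against B. subtilis, C. glutamicum, S. aureus, S. epidermidis RP62A, E. coli and P. aeruginosa; inoculum 2.5–3 × 10^4 CFU/mL, 35 °C, OD595 read hourly for 24 h. MIC: lowest peptide concentration giving OD below 10% of growth control; geometric mean across strains, triplicate.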

[7] = test system: A. pullulans (Ap); assay: microbe, parasite or virus in culture; type: cell-based, Aurobasidium pollulans; conditions: 48 h
Method in brief: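 Overnight cultures in potato dextrose broth with 2% glucose at 25–30 °C were diluted to approx. 4 × 10^5 spores/mL and mixed 1:1 with two-fold peptide dilutions plated at 256 to 1 µg/mL. After 48 h at room temperature, OD600 was read. MIC was the lowest concentration giving OD below 10% of the growth control, in triplicate.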

[8] = test system: E. coli MC4100 (WT); assay: Outer membrane permeability assay (NPN uptake fluorescence); type: cell-based, Escherichia coli
Experimental: The outer membrane of Gram-negative bacteria acts as a barrier for many hydrophobic and larger hydrophilic substances (>600 Da). However, some peptides can sensitize the outer membrane and thus facilitate the entry of various hydrophobic molecules. To explore if the peptides affect the outer membrane of E. coli MC4100, C12-cTurg-1 and C8-cTurg-2 were tested for their ability to enable the entry of the hydrophobic fluorescent probe 1-N-phenylnapthylamine (NPN, MW of 219 Da) (Figure 5). […] Normally, the hydrophobic NPN is excluded by E. coli bacteria, but it can enter the bacteria once the integrity of the outer membrane is compromised. […] Thus, the observed effects indicate that the outer membrane passage of C8-cTurg-2 was a rate-limiting step that was most likely preventing the peptide from reaching and accumulating in the inner membrane.
The permeability of the E. coli outer membrane was analysed by measuring increased fluorescence as kinetics of 1-N-phenylnaphthylamine (NPN, Sigma-Aldrich) uptake following the protocol described by, with minor modifications. Briefly, a single colony of E. coli MC4100 (WT) was suspended in MH medium and incubated overnight at 37 °C with shaking (225 rpm). The culture was diluted in MH medium and adjusted to OD600 = 0.1 and incubated at 37 °C until it reached an OD600 of 0.5. The cells were centrifuged and washed twice with an assay buffer (5 mM HEPES, 5 mM glucose, pH 7.2) and resuspended in the same buffer to a final OD600 of 1.0. E. coli MC4100 cells were mixed with 20 µM NPN. The assay set up was the same as for the membrane integrity and viability assay, using black round-bottom 96-well microtiter plates (Nunc) containing 10 µL of 2-fold dilutions of peptides (500 to 31.2 µg/mL). A volume of 90 µL of cell suspension with NPN was added to each well by the automated injector of the Synergy H1 Hybrid Reader. The fluorescence was immediately measured (well by well) at an excitation wavelength of 350 nm and an emission wavelength of 420 nm every second for 3 min. The relative fluorescence was calculated by normalizing the values from each time point with the negative control (Milli-Q water). CHX was included as a positive control.

Compound	MIC ([1]; Bacillus subtilis, ATCC23857, B. subtilis ATCC 23857, 24 h, read-out: Antimicrobial Activity (MIC) Gram + Bs) [µg/mL]	MIC ([2]; Corynebacterium glutamicum, ATCC13032, C. glutamicum ATCC 13032, 24 h, read-out: Antimicrobial Activity (MIC) Gram + Cg) [µg/mL]	MIC ([3]; Staphylococcus aureus, ATCC9144, S. aureus ATCC 9144, 24 h, read-out: Antimicrobial Activity (MIC) Gram + Sa) [µg/mL]	MIC ([4]; Staphylococcus epidermidis, ATCC35984, S. epidermidis RP62A ATCC 35984, 24 h, read-out: Antimicrobial Activity (MIC) Gram + Se) [µg/mL]	MIC ([5]; Pseudomonas aeruginosa, ATCC27853, P. aeruginosa ATCC 27853, 24 h, read-out: Antimicrobial Activity (MIC) Gram − Pa) [µg/mL]	MIC ([6]; read-out: GM (geometric mean of the MIC values against all bacterial strains)) [µg/mL]	MIC ([7]; Aureobasidium pullulans, A. pullulans, read-out: Antimicrobial Activity (MIC) Fungi Ap) [µg/mL]	effect on NPN fluorescence (outer membrane permeabilization) ([8]; E. coli MC4100, 20 µM NPN, 3 min)	Antimicrobial Activity (MIC) Gram + Bs [1] [µg/mL]	Antimicrobial Activity (MIC) Gram + Cg [2] [µg/mL]	Antimicrobial Activity (MIC) Gram + Sa [3] [µg/mL]	Antimicrobial Activity (MIC) Gram + Se [4] [µg/mL]	Antimicrobial Activity (MIC) Gram − Pa [5] [µg/mL]	GM (geometric mean of the MIC values against all bacterial strains) [6] [µg/mL]	GM of MIC Tot. bact. [6] [µg/mL]	Antimicrobial Activity (MIC) Fungi Ap [7] [µg/mL]	effect on NPN fluorescence (outer membrane permeabilization) ([8]; not told)	increase in NPN fluorescence ([8]; E. coli MC4100, 25 to 50 µg/mL)
[H]/N=C(\N/C(=N/[H])NCCCCCCNC(=N)NC(=N)Nc1ccc(Cl)cc1)Nc1ccc(Cl)cc1 [Chlorhexidine, reference compound]	1.6	0.8	1.6	1.6	6.3 (≈ 12.5 µM)	20 (≈ 39.6 µM)	1	increase the NPN fluorescence in a concentration-dependent manner	–	–	–	–	–	–	–	–	–	–
CCCCCCCC(=O)N[C@H]1CSSC[C@@H](C(=O)N[C@@H](CCCCN)C(=O)N[C@@H](CC(C)C)C(N)=O)NC(=O)[C@H](CCCCN)NC(=O)[C@H](Cc2c[nH]c3ccccc23)NC(=O)CNC(=O)[C@H](Cc2c[nH]c3ccccc23)NC(=O)[C@H](Cc2c[nH]c3ccccc23)NC(=O)[C@H](CCCCN)NC(=O)[C@H](CCCCN)NC(=O)CNC1=O [Peptide C8-cTurg-2, C8- (CGKKWWGWKC)KL-NH2] (Octanoyl-CGKKWWGWKCKL-NH2; disulfide 1-10)	–	–	–	–	–	–	–	–	2	2	4	4	8	4	4	16	increase the NPN fluorescence in a concentration-dependent manner	–
CCCCCCCCCCCC(=O)N[C@H]1CSSC[C@@H](C(=O)N[C@@H](CCCCN)C(=O)N[C@@H](CC(C)C)C(N)=O)NC(=O)[C@H](CCCCN)NC(=O)[C@H](Cc2c[nH]c3ccccc23)NC(=O)CNC(=O)CNC(=O)[C@@H]2CCCN2C(=O)[C@H](CCCCN)NC(=O)[C@H](CCCCN)NC(=O)CNC1=O [Peptide C12-cTurg-1, C12 -(CGKKPGGWKC)KL-NH2] (Lauroyl-CGKKPGGWKCKL-NH2; disulfide 1-10)	–	–	–	–	–	–	–	–	2	2	4	4	16	4	4	32	increase the NPN fluorescence in a concentration-dependent manner	almost a four-fold increase
